Laboratory results: patent US9676760B2, “Fused heterocyclic compounds as ion channel modulators” (Gilead Sciences, Inc., priority 2011, dated 2017)

Columns and labels:
hERG potassium channel = hERG potassium channel (Homo sapiens, UniProt Q12809); experiment: hERG screening assay (PatchXpress, CHO cells); assay type: cell-based; parameters: hERG: unit not given here
Procedure: Compounds were also tested for their effect to block the hERG K^+ channel.
Compounds were screened to test their activity in blocking the hERG potassium channel at AVIVA Biosciences (San Deigo, Calif., USA). The hERG channel is heterologously expressed in a CHO (Chinese Hamster Ovary) cell line. Cells were maintained with standard tissue culture procedures and stable channel expression was maintained with 500 μg/mL G418 in the culture medium. Cells were harvested for testing on the PatchXpress 7000A automated patch clamp with Accumax (Innovative Cell Technologies, San Diego, Calif.) to isolate single cells.
The following solutions were used for electrophysiological recordings. The external solution contained: 2 mM CaCl2; 2 mM MgCl2; 4 mM KCl; 150 mM NaCl; 10 mM Glucose; 10 mM HEPES (pH 7.4 with 1M NaOH; osmolarity, ˜310 mOsm).
hERG channels were activated when the voltage was first stepped to −50 mV for 300 ms from the −80 mV holding potential and then stepped to +20 mV for 5 seconds. At +20 mV the channels open and then largely inactivate, so the currents are relatively small. Upon returning to −50 mV from +20 mV, hERG currents transiently become much larger as inactivation is rapidly removed and then the channel closes. The first step to −50 mV for 300 ms was used as a baseline for measuring the peak amplitude during the step to −50 mV after channel activation. The peak tail current at −50 mV was measured both under control conditions and after addition of compound, each cell serving as its own control.
All compounds were prepared as 10 mM DMSO stocks in glass vials. Stock solutions were mixed by vigorous vortexing and sonication for about 2 minutes at room temperature. For testing, compounds were diluted in glass vials using an intermediate dilution step in pure DMSO and then further diluted to working concentrations in external solution. Dilutions were prepared no longer than 20 minutes before use.
For the electrophysiological recordings, after achieving the whole-cell configuration, cells were monitored for 90 seconds to assess stability and washed with external solution for 66 seconds. The voltage protocol described above was then applied to the cells every 12 seconds and throughout the whole procedure. Only cells with stable recording parameters and meeting specified health criteria were allowed to enter the compound addition procedure.
External solution containing 0.1% DMSO (vehicle) was applied to the cells first to establish the control peak current amplitude. After allowing the current to stabilize for 3 to 5 minutes, 1 μM and then 10 μM test compounds were applied. Each compound concentration was added 4 times and cells were kept in test solution until the effect of the compound reached steady state or for a maximum of 12 minutes. […] Washout in the external solution compartment was performed until the recovery of the current reached steady state.

[1] = tested on: Female New Zealand rabbits; experiment: Ischemia-induced ST segment elevation in anesthetized rabbits; assay type: in vivo, rabbit
Procedure: This study was undertaken to determine the anti-ischemic effects of compounds of the present disclosure in an in vivo rabbit model.
Female New Zealand rabbits (3.0-4.0 kg) were purchased from Western Oregon Rabbitry. Animals were housed on a 12-h light and dark cycle and received standard laboratory chow and water. All experiments were performed in accordance with the Guide for the Care and Use of Laboratory Animals published by The National Research Council and with the experimental protocol approved by the Institutional Animal Care Committee of Gilead Sciences, Inc.
Rabbits were anesthetized with ketamine (35 mg/kg) and xylazine (5 mg/kg) intramuscular injection (im). A tracheotomy was performed and the trachea was intubated with an endotracheal tube. The animal was ventilated with room air supplemented with oxygen using a pressure control animal ventilator (Kent Scientific Corp., Torrington, Conn.) at a respiratory rate of 40 strokes/min and peak inspiration pressure of 10 mmH2O, which was adjusted to keep blood gases and pH within the physiological range (iSTAT clinic analyzer, Heska Corp.; Waukesha, Wis.). The left femoral artery was cannulated for the measurement of blood pressure (BP). Blood samples were also withdrawn from femoral artery. The right external jugular vein was cannulated for drug/vehicle administration. Needle electrodes were inserted subcutaneously into the limbs for recording of the surface electrocardiogram (ECG). The heart was exposed via an incision in the 4th intercostal space (4th and/or 5th ribs were cut for a clear surgical vision). The chest was opened and a pericardial cradle was formed using 4 retractors. A coronary artery occluder, comprised of a snare made of 5 cm PE-10 tubing with a 6-0 Prolene polypropylene suture in it, was placed loosely around the left anterior descending artery (LAD) at its origin. Two unipolar electrodes, made with teflon coated silver wire attached to a small patch of filter paper, were attached on the surface of the ischemic and normal regions of the left ventricle to record epicardial electrocardiogram. Reference electrodes were placed in the open incision of the neck. The body temperature of the animal was monitored via a rectal thermometer and maintained at 37-40° C. by adjusting the surface temperature of the surgical table. Regional ischemia (15 min) was induced by ligating the LAD followed by 15 min of reperfusion caused by releasing the ligation. The heart was excised at the end of the experiment and the LAD was re-ligated. The ischemic area was visualized by perfusing the heart with 1% Evans blue in saline and calculated as a percentage of total ventricular weight. Rabbits with ischemic area less than 10% or larger than 25% were excluded from the analysis. Animals were randomly assigned to vehicle and test compound groups. Test compounds was dissolved in 5% NMP, 30% PG, 45% PEG 400 and 20% de-ionized water (dH2O). Test compound was given as an iv bolus at 0.1, 0.2 and 0.4 mg/kg. After 30 min of dosing, the heart was subjected to 15 min of ischemia followed by 15 min of reperfusion.

Sequence of hERG potassium channel (Q12809 whole entry): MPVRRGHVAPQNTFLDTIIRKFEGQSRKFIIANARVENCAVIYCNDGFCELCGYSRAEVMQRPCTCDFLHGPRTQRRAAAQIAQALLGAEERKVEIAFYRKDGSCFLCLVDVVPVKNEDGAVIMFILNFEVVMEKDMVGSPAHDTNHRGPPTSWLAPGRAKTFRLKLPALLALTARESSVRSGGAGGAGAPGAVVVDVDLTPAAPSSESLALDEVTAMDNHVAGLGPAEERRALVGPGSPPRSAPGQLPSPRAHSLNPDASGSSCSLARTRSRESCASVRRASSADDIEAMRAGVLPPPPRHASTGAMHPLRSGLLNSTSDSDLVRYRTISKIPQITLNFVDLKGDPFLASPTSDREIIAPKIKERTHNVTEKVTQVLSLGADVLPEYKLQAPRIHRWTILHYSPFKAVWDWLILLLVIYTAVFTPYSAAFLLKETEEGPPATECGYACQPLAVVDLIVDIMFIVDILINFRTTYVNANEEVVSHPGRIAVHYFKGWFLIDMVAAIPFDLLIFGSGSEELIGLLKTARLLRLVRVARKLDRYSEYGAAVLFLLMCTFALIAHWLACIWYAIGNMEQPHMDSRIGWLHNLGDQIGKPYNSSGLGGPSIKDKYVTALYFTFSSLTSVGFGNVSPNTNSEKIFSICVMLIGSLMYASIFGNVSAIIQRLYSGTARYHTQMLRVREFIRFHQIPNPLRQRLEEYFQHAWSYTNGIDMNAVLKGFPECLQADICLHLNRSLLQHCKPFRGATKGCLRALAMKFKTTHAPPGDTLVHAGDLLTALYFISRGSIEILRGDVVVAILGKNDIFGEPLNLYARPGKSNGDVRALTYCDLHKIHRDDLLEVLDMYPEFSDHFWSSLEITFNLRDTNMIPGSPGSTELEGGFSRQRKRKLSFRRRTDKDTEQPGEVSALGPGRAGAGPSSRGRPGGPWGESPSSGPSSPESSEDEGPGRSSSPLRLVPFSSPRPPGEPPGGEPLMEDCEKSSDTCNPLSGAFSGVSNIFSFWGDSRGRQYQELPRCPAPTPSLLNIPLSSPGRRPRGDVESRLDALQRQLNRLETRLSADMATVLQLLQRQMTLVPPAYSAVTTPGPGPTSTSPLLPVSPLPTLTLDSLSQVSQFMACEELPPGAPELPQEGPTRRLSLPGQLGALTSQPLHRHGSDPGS

SMILES: O=C1c2cc(-c3ccc(C(F)(F)F)cc3)ccc2OCCN1Cc1ncccn1 [II-61, 4-(pyrimidin-2-ylmethyl)-7-(4-(trifluoromethyl)phenyl)-3,4-dihydrobenzo[f][1,4]oxazepin-5(2H)-one]
- hERG (hERG potassium channel): <10
- area under curve (AUC) for the ST segment height reduced (vs. control) ([1]; 0.28 μM plasma concentration, iv bolus, 15 min ischemia): 38%
- effect on blood pressure (BP), heart rate (HR) and ECG intervals prior to the ischemia ([1]; at the plasma concentration levels studied): no significant effect
- ischemia-induced ST elevation ([1]; iv bolus 30 min before 15 min ischemia): dose-dependently prevented
